Laboratory results taken from patent USRE42890E1, “Furazanobenzimidazoles” (Basilea Pharmaceutica AG, priority 2003, dated 2011).
pIC50: −log10 of the molar value. Read-outs that look alike come from different tables or passages of the source.

Key:
[1] = system: adherent cells or suspension cells; assay: Hoechst 33342 nuclear staining (fraction of apoptotic nuclei); type: cell-based; set-up: key: 0 relating to no activity; 1 relating to weak activity comprising less than 70% of the cells; score 2 relating to strong activity comprising more than 70% of the cells
Method: (§1) Cell lines are cultured in RPMI-1640 tissue culture medium containing either 5% or 10% fetal calf serum, 0.05 mM 2-mercaptoethanol, 2 mM glutamine and penicillin/streptomycin 50 μg/ml (complete medium) (Sigma, Buchs, Switzerland). General growth conditions are 37° C. and 7.5% CO2.
This assay is performed in 96 well tissue culture plates. Appropriate number of cells (adherent cells: 3-5*10^3, suspension cells: 8-10*10^3) are being seeded out in 80 μl complete medium. Adherent cells are incubated for 24 h for proper spreading out before addition of test compounds while suspension cells are immediately treated with test compounds after seeding out. The test compounds are added in 20 μl complete medium containing max 5% DMSO. […] After 24 h or 48 h incubation at culture conditions, 10 μl medium containing Hoechst 33342 dye (Sigma B-2261) at 2-5 μg/ml are added to each well. The assay plates are then further incubated for 30 minutes and subsequently analyzed with a standard inverted fluorescence microscope.
The readout allows the determination of the fraction of apoptotic nuclei as well as other morphological criteria specific for apoptosis as a function of the treatment. The following scores are used: 0 relating to no activity, 1 relating to weak activity comprising less than 70% of the cells and score 2 relating to strong activity comprising more than 70% of the cells.

Jurkat = assay: MTS proliferation assay, Jurkat; type: cell-based, human; conditions: 72 h incubation, read-out: MTS proliferation assay IC 50 Jurkat
Method: as §1
(§2) The following human cell lines (either EGFP transfected or not) are being used: HeLa (ATCC: CCL-2), KB (ATCC: CCL-17), MCF7 (ATCC: HTB-22), SK-BR-3 (ATCC: HTB-30), SK-Mel 1 (ATCC: HTB-67), SK-Mel 28 (ATCC: HTB-72), PC-3 (ATCC: CRL-1435), SW 480 (ATCC: CCL-228), NCl-H460 (ATCC: HTB-177), NCl-H1792 (ATCC: CRL-5895), HT1080 (ATCC: CCL-21), Jurkat (ATCC: TIB-152), Ramos (ATCC: CRL-1596), Raji (ATCC: CCL-86), H9 (ATCC: HTB-176), Hut78 (ATCC: TIB-161), K562 (ATCC: CCL 243), HL-60 (ATCC: CCL 240), U-87MG (ATCC: HTB-14), HepG2 (ATCC: HB-8065), U-2 OS (ATCC: HTB-96), Saos-2 (ATCC: HTB-85), U937 (ATCC: CRL 1593), Hs 578T (ATCC: HTB 126), HBL-100 (ATCC: HTB 124), Molt-4 (ATCC: CRL 1582).
(§3) The assay is performed in 96 well tissue culture plates. The cells (range: 1.5*10^3-10^4) are seeded out in 80 μl complete medium 24 h prior to compound treatment. The test compounds are added in 20 μl complete medium containing max 5% DMSO. The final compound concentrations in the assays are 10 μM, 3 μM, 1 μM and 0.3 μM, respectively. The assay plates are incubated for 72 h at culture conditions. The MTS reagent is prepared according to the manufacturer's protocol (Promega G1111). 20 μl MTS reagent are added to each well, the assay plates are quickly spun and incubated for another 3 h at culture conditions. Subsequently, the plates are shortly shaked and absorption measured with a microplate-reader at 492 nm.

HeLa = assay: MTS proliferation assay, HeLa; type: cell-based, human; conditions: 72 h incubation, read-out: MTS proliferation assay IC 50 HeLa
Method: as §1, §2, §3

MRC5 = assay: MTS proliferation assay, MRC5; type: cell-based; conditions: MRC5, 72 h incubation, read-out: MTS proliferation assay IC 50 MRC5
Method: as §1, §3

pIC50 (Jurkat) | pIC50 (HeLa) | Structure (SMILES) | Hoechst 33342 nuclear staining score ([1]; H460, conc 0.01 μm) | Hoechst 33342 nuclear staining score ([1]; H460, conc 0.1 μm) | Hoechst 33342 nuclear staining score ([1]; H460, conc 1 μm) | Hoechst 33342 nuclear staining score ([1]; HeLa, conc 0.01 μm) | Hoechst 33342 nuclear staining score ([1]; HeLa, conc 0.1 μm) | Hoechst 33342 nuclear staining score ([1]; HeLa, conc 1 μm) | Hoechst 33342 nuclear staining score ([1]; Jily, conc 0.01 μm) | Hoechst 33342 nuclear staining score ([1]; Jily, conc 0.1 μm) | Hoechst 33342 nuclear staining score ([1]; Jurkat, conc 0.01 μm) | Hoechst 33342 nuclear staining score ([1]; Jurkat, conc 0.1 μm) | Hoechst 33342 nuclear staining score ([1]; Jurkat, conc 1 μm) | Hoechst 33342 nuclear staining score ([1]; MRC5, conc 0.01 μm) | Hoechst 33342 nuclear staining score ([1]; MRC5, conc 0.1 μm) | Hoechst 33342 nuclear staining score ([1]; MRC5, conc 1 μm) | Hoechst 33342 nuclear staining score ([1]; PBLs, conc 0.01 μm) | Hoechst 33342 nuclear staining score ([1]; PBLs, conc 0.1 μm) | Hoechst 33342 nuclear staining score ([1]; PBLs, conc 1 μm) | pIC50 (MRC5) | further results
< 6.00 | < 6.00 | CON=C(Cn1c(-c2nonc2N)nc2ccccc21)c1ccccc1Cl (mixture of isomers) [Example 34] | 0 | 0 | 0 | 0 | 0 | 0 | 0 | 0 | 0 | 0 | 0 | 0 | 0 | 0 | 0 | 0 | 0 | < 6.00 | Hoechst 33342 nuclear staining score ([1]; Jily, conc 1 μm): 0
– | – | CC(=O)Nc1nonc1-c1nc2ccccc2n1CC(=O)c1ccc(Cl)cc1 [Example 5, N-{4-[1-(4-Chlorophenacyl)-1H-benzimidazol-2-yl]-furazan-3-yl}-acetamide] | – | – | – | 0 | 0 | 2 (score 2 relating to strong activity comprising more than 70% of the cells) | – | – | 0 | 0 | 2 (score 2 relating to strong activity comprising more than 70% of the cells) | 0 | 0 | 0 | 0 | 0 | 0 | – | pIC50 (Jurkat; Homo sapiens): 6.00 to 7.00; pIC50 (HeLa; Homo sapiens): 6.00 to 7.00; pIC50 (MRC5; Homo sapiens): 6.00 to 7.00
– | – | Nc1nonc1-c1nc2ccccc2n1CC(=O)c1ccccc1 [Example 1, 4-(1-Phenacyl-1H-benzimidazol-2-yl)-furazan-3-ylamine] | 0 | 0 | 2 (score 2 relating to strong activity comprising more than 70% of the cells) | 0 | 0 | 2 (score 2 relating to strong activity comprising more than 70% of the cells) | – | – | 0 | 0 | 2 (score 2 relating to strong activity comprising more than 70% of the cells) | 0 | 0 | 1 (1 relating to weak activity comprising less than 70% of the cells) | 0 | 0 | 0 | – | pIC50 (Jurkat; Homo sapiens): 7.00 to 8.00; pIC50 (HeLa; Homo sapiens): 6.00 to 7.00; pIC50 (MRC5; Homo sapiens): < 6.00
6.00 to 7.00 | < 6.00 | COc1ccc(C(Cn2c(-c3nonc3N)nc3ccccc32)=NO)cc1 (mixture of isomers) [Example 20] | 0 | 0 | 0 | 0 | 0 | 0 | – | – | 0 | 0 | 0 | 0 | 0 | 0 | 0 | 0 | 0 | < 6.00 | –
6.00 to 7.00 | < 6.00 | CON=C(Cn1c(-c2nonc2N)nc2ccccc21)c1ccccc1 (mixture of isomers) [Example 18] | 0 | 0 | 1 (1 relating to weak activity comprising less than 70% of the cells) | 0 | 0 | 2 (score 2 relating to strong activity comprising more than 70% of the cells) | – | – | 0 | 0 | 2 (score 2 relating to strong activity comprising more than 70% of the cells) | 0 | 0 | 1 (1 relating to weak activity comprising less than 70% of the cells) | 0 | 0 | 0 | 6.00 to 7.00 | –
< 6.00 | < 6.00 | Nc1nonc1-c1nc2ccccc2n1CC(=NO)c1ccccc1Cl (mixture of isomers) [Example 33] | 0 | 0 | 0 | 0 | 0 | 0 | 0 | 0 | 0 | 0 | 0 | 0 | 0 | 0 | 0 | 0 | 0 | < 6.00 | Hoechst 33342 nuclear staining score ([1]; Jily, conc 1 μm): 0
< 6.00 | < 6.00 | Nc1nonc1-c1nc2ccccc2n1CC(=NO)c1ccccc1 (mixture of isomers) [Example 17] | 0 | 0 | 0 | 0 | 0 | 0 | 0 | 0 | 0 | 0 | 0 | 0 | 0 | 0 | 0 | 0 | 0 | – | Hoechst 33342 nuclear staining score ([1]; Jily, conc 1 μm): 0
– | – | CNc1nonc1-c1nc2ccccc2n1CC(=O)c1ccc(Cl)cc1 [Example 3, Methyl-{4-[1-(4-chlorophenacyl)-1H-benzimidazol-2-yl]-furazan-3-yl}-amine] | – | – | – | 0 | 0 | 0 | – | – | 0 | 0 | 0 | 0 | 0 | 0 | 0 | 0 | 0 | – | pIC50 (Jurkat; Homo sapiens): 6.00 to 7.00; pIC50 (MRC5; Homo sapiens): < 6.00
